The supplement of paper PMC10627819

Experiments:
[1] = system: B. subtilis 168; assay: fitness (endpoint OD595 vs no drug) (fraction); higher = more growth
Outline: (§1)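 Growth medium was TSB, LB Lennox or CY, and plates were kept at 37 °C. Inoculation was at OD595 0.01 in 384-well plates, at 30 µl per well or 55 µl for S. pneumoniae. OD595 was monitored every 30 min for 14 h and background-subtracted using the first reading. Fitness is the optical density on entering stationary phase divided by the robust mean of no-drug controls, with values capped at 1.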

[2] = system: S. aureus DSM 20231; assay: as above
Outline: as §1

[3] = system: S. aureus Newman; assay: as above
Outline: as §1

[4] = system: S. pneumoniae D39V; assay: as above
Outline: as §1

[5] = system: B. subtilis 168; assay: Bliss interaction score (quartile over a dose matrix) (fitness difference); higher = more antagonism (negative = synergy)
Outline: (§2)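 The Bliss score is observed minus expected fitness, where expected fitness is the product of the single-drug fitness values inferred from the combination data. Fitness is the OD595 at the onset of stationary phase over the plate's robust no-drug mean, capped at 1. Scores are summarised by quartiles over technical, biological and donor/recipient replicates.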

[6] = system: S. aureus DSM 20231; assay: as above
Outline: as §2

[7] = system: S. aureus Newman; assay: as above
Outline: as §2

[8] = system: S. pneumoniae D39V; assay: as above
Outline: as §2
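Wherever Bliss interaction score (quartile over a dose matrix) is given: first quartile when negative (synergy) and third quartile when positive (antagonism).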
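Wherever fitness (endpoint OD595 vs no drug) is given: OD595 on entry to stationary phase over no-drug wells; at most 1.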

COc1c(N2C[C@@H]3CCCN[C@@H]3C2)c(F)cc2c(=O)c(C(=O)O)cn(C3CC3)c12 [Moxifloxacin] + CC1=C\[C@@H](O)CC(=O)Cc2nc(co2)C(=O)N2CCC=C2C(=O)O[C@H](C(C)C)[C@H](C)/C=C/C(=O)NC\C=C\1 [Virginiamycin M1]
Settings	fitness
[1], first compound 0.0312 µg/mL, partner 0.0625 µg/mL	0.0441
[1], first compound 0.0312 µg/mL, partner 0.125 µg/mL	0.0556
[1], first compound 0.0312 µg/mL, partner 0.25 µg/mL	0.0499
[1], first compound 0.0625 µg/mL, partner 0.0625 µg/mL	0.0365
[1], first compound 0.0625 µg/mL, partner 0.125 µg/mL	0.0573
[1], first compound 0.0625 µg/mL, partner 0.25 µg/mL	0.0434
[1], first compound 0.125 µg/mL, partner 0.0625 µg/mL	0.044
[1], first compound 0.125 µg/mL, partner 0.125 µg/mL	0.0517
[1], first compound 0.125 µg/mL, partner 0.25 µg/mL	0.0468
[1], first compound 2 µg/mL, partner 0.0625 µg/mL	0.0224
[1], first compound 2 µg/mL, partner 0.125 µg/mL	0.0234
[1], first compound 2 µg/mL, partner 0.25 µg/mL	0.0324
[1], first compound 4 µg/mL, partner 0.0625 µg/mL	0.0209
[1], first compound 4 µg/mL, partner 0.125 µg/mL	0.0242
[1], first compound 4 µg/mL, partner 0.25 µg/mL	0.0192
[1], first compound 8 µg/mL, partner 0.0625 µg/mL	0.0121
[1], first compound 8 µg/mL, partner 0.125 µg/mL	0.0128
[1], first compound 8 µg/mL, partner 0.25 µg/mL	0.0206
[2], first compound 0.0075 µg/mL, partner 0.0625 µg/mL	0.812
[2], first compound 0.0075 µg/mL, partner 0.125 µg/mL	0.901
[2], first compound 0.0075 µg/mL, partner 0.25 µg/mL	0.81
[2], first compound 0.015 µg/mL, partner 0.0625 µg/mL	0.702
[2], first compound 0.015 µg/mL, partner 0.125 µg/mL	0.72
[2], first compound 0.015 µg/mL, partner 0.25 µg/mL	0.776
[2], first compound 0.03 µg/mL, partner 0.0625 µg/mL	0.609
[2], first compound 0.03 µg/mL, partner 0.125 µg/mL	0.67
[2], first compound 0.03 µg/mL, partner 0.25 µg/mL	0.662
[3], first compound 0.0075 µg/mL, partner 0.0625 µg/mL	0.764
[3], first compound 0.0075 µg/mL, partner 0.125 µg/mL	0.762
[3], first compound 0.0075 µg/mL, partner 0.25 µg/mL	0.795
[3], first compound 0.015 µg/mL, partner 0.0625 µg/mL	0.545
[3], first compound 0.015 µg/mL, partner 0.125 µg/mL	0.556
[3], first compound 0.015 µg/mL, partner 0.25 µg/mL	0.517
[3], first compound 0.03 µg/mL, partner 0.0625 µg/mL	0.0697
[3], first compound 0.03 µg/mL, partner 0.125 µg/mL	0.0796
[3], first compound 0.03 µg/mL, partner 0.25 µg/mL	0.0787
[4], first compound 0.0037 µg/mL, partner 2 µg/mL	0.802
[4], first compound 0.005 µg/mL, partner 0.5 µg/mL	0.999
[4], first compound 0.005 µg/mL, partner 1 µg/mL	≥ 1
[4], first compound 0.005 µg/mL, partner 2 µg/mL	0.99
[4], first compound 0.0075 µg/mL, partner 2 µg/mL	0.869
[4], first compound 0.01 µg/mL, partner 0.5 µg/mL	≥ 1
[4], first compound 0.01 µg/mL, partner 1 µg/mL	0.992
[4], first compound 0.01 µg/mL, partner 2 µg/mL	0.979
[4], first compound 0.015 µg/mL, partner 2 µg/mL	0.811
[4], first compound 0.02 µg/mL, partner 0.5 µg/mL	0.981
[4], first compound 0.02 µg/mL, partner 1 µg/mL	0.995
[4], first compound 0.02 µg/mL, partner 2 µg/mL	0.963

one replicate
Settings	fitness
[2], first compound 0.0075 µg/mL, partner 0.5 µg/mL	0.785
[2], first compound 0.0075 µg/mL, partner 1 µg/mL	0.81
[2], first compound 0.015 µg/mL, partner 0.5 µg/mL	0.787
[2], first compound 0.015 µg/mL, partner 1 µg/mL	0.793
[2], first compound 0.03 µg/mL, partner 0.5 µg/mL	0.693
[2], first compound 0.03 µg/mL, partner 1 µg/mL	0.734
[2], first compound 0.06 µg/mL, partner 0.0625 µg/mL	0.686
[2], first compound 0.06 µg/mL, partner 0.125 µg/mL	0.695
[2], first compound 0.06 µg/mL, partner 0.25 µg/mL	0.69
[2], first compound 0.12 µg/mL, partner 0.0625 µg/mL	0.462
[2], first compound 0.12 µg/mL, partner 0.125 µg/mL	0.471
[2], first compound 0.12 µg/mL, partner 0.25 µg/mL	0.46
[3], first compound 0.0075 µg/mL, partner 0.5 µg/mL	0.659
[3], first compound 0.0075 µg/mL, partner 1 µg/mL	0.758
[3], first compound 0.0075 µg/mL, partner 2 µg/mL	0.665
[3], first compound 0.015 µg/mL, partner 0.5 µg/mL	0.654
[3], first compound 0.015 µg/mL, partner 1 µg/mL	0.643
[3], first compound 0.015 µg/mL, partner 2 µg/mL	0.579
[3], first compound 0.03 µg/mL, partner 0.5 µg/mL	0.465
[3], first compound 0.03 µg/mL, partner 1 µg/mL	0.414
[3], first compound 0.03 µg/mL, partner 2 µg/mL	0.323
[4], first compound 0.0037 µg/mL, partner 0.15 µg/mL	0.808
[4], first compound 0.0037 µg/mL, partner 0.3 µg/mL	0.758
[4], first compound 0.0037 µg/mL, partner 0.5 µg/mL	0.97
[4], first compound 0.0037 µg/mL, partner 1 µg/mL	0.95
[4], first compound 0.0075 µg/mL, partner 0.15 µg/mL	0.911
[4], first compound 0.0075 µg/mL, partner 0.3 µg/mL	0.877
[4], first compound 0.0075 µg/mL, partner 0.5 µg/mL	0.965
[4], first compound 0.0075 µg/mL, partner 1 µg/mL	0.934
[4], first compound 0.015 µg/mL, partner 0.15 µg/mL	0.832
[4], first compound 0.015 µg/mL, partner 0.3 µg/mL	0.843
[4], first compound 0.015 µg/mL, partner 0.5 µg/mL	0.933
[4], first compound 0.015 µg/mL, partner 1 µg/mL	0.873

Settings	Bliss interaction score
[5]	-0.0191
[6]	-0.0567
[7]	-0.0536
[8]	0.065

COc1c(N2C[C@@H]3CCCN[C@@H]3C2)c(F)cc2c(=O)c(C(=O)O)cn(C3CC3)c12 [Moxifloxacin] + CCN(CC)CCOC(=O)c1ccc(N)cc1 [Procaine]
fitness
Settings	partner 85.5 µg/mL	partner 171 µg/mL	partner 342 µg/mL
[1], first compound 0.0312 µg/mL	0.0464	0.0462	0.0422
[1], first compound 0.0625 µg/mL	0.051	0.0447	0.0546
[1], first compound 0.125 µg/mL	0.0477	0.041	0.0508
[1], first compound 2 µg/mL	0.0328	0.02	0.021
[1], first compound 4 µg/mL	0.0283	0.0228	0.0275
[1], first compound 8 µg/mL	0.017	0.0132	0.0182
[2], first compound 0.0075 µg/mL	0.781	0.876	0.898
[2], first compound 0.015 µg/mL	0.712	0.744	0.773
[2], first compound 0.03 µg/mL	0.619	0.677	0.669
[3], first compound 0.0075 µg/mL	0.771	0.757	0.763
[4], first compound 0.005 µg/mL	≥ 1	0.996	≥ 1
[4], first compound 0.01 µg/mL	≥ 1	0.986	0.974
[4], first compound 0.02 µg/mL	0.966	0.929	0.874

fitness, one replicate
Settings	partner 85.5 µg/mL	partner 171 µg/mL	partner 342 µg/mL
[2], first compound 0.06 µg/mL	0.684	0.666	0.688
[2], first compound 0.12 µg/mL	0.481	0.468	0.492
[4], first compound 0.0037 µg/mL	0.927	0.926	0.826
[4], first compound 0.0075 µg/mL	≥ 1	0.93	0.845
[4], first compound 0.015 µg/mL	0.881	0.923	0.849

Settings	Bliss interaction score
[5]	-0.015
[6]	-0.0665
[7]	0.0617
[8]	0.0674

COc1c(N2C[C@@H]3CCCN[C@@H]3C2)c(F)cc2c(=O)c(C(=O)O)cn(C3CC3)c12 [Moxifloxacin] + CN1C2=CC=CC=C2N=C3C1=CC=CC3=O [Pyocyanin]
fitness
Settings	partner 0.325 µg/mL	partner 0.65 µg/mL	partner 1.25 µg/mL	partner 1.3 µg/mL	partner 2.5 µg/mL	partner 5 µg/mL
[1], first compound 0.0312 µg/mL	–	–	0.0609	–	0.0599	0.0529
[1], first compound 0.0625 µg/mL	–	–	0.0538	–	0.0598	0.057
[1], first compound 0.125 µg/mL	–	–	0.0466	–	0.047	0.0468
[1], first compound 2 µg/mL	–	–	0.0183	–	0.0257	0.0378
[1], first compound 4 µg/mL	–	–	0.0241	–	0.0221	0.0304
[1], first compound 8 µg/mL	–	–	0.012	–	0.0127	0.0179
[2], first compound 0.0075 µg/mL	–	–	0.836	–	0.755	0.665
[2], first compound 0.015 µg/mL	–	–	0.743	–	0.711	0.569
[2], first compound 0.03 µg/mL	–	–	0.678	–	0.706	0.567
[3], first compound 0.0075 µg/mL	–	–	0.679	–	0.605	0.372
[3], first compound 0.015 µg/mL	–	–	0.51	–	0.434	0.221
[3], first compound 0.03 µg/mL	–	–	0.157	–	0.138	0.0727
[4], first compound 0.005 µg/mL	≥ 1	0.988	–	0.797	–	–
[4], first compound 0.01 µg/mL	≥ 1	0.98	–	0.828	–	–
[4], first compound 0.02 µg/mL	≥ 1	0.959	–	0.788	–	–

one replicate
Settings	fitness
[2], first compound 0.06 µg/mL, partner 1.25 µg/mL	0.671
[2], first compound 0.06 µg/mL, partner 2.5 µg/mL	0.658
[2], first compound 0.06 µg/mL, partner 5 µg/mL	0.651
[2], first compound 0.12 µg/mL, partner 1.25 µg/mL	0.493
[2], first compound 0.12 µg/mL, partner 2.5 µg/mL	0.514
[2], first compound 0.12 µg/mL, partner 5 µg/mL	0.47
[4], first compound 0.0037 µg/mL, partner 0.325 µg/mL	0.925
[4], first compound 0.0037 µg/mL, partner 0.65 µg/mL	0.871
[4], first compound 0.0075 µg/mL, partner 0.325 µg/mL	0.948
[4], first compound 0.0075 µg/mL, partner 0.65 µg/mL	0.883
[4], first compound 0.015 µg/mL, partner 0.325 µg/mL	0.911
[4], first compound 0.015 µg/mL, partner 0.65 µg/mL	0.91

Settings	Bliss interaction score
[5]	-0.0123
[6]	0.0656
[7]	-0.0614
[8]	0.0702
